The text below walks through data of patent US20120077802A1 (SUNOVION PHARMACEUTICALS INC., priority 2009, published 2012).

The experiment deals with T1, human histamine H3 receptor (Homo sapiens, UniProt Q9Y5N1).
T1 construct: host or cells: cells expressing the human H3 receptor
Kind of experiment: H3 GTPγS assay (SPA method), histamine H3 in vitro assay. In kind it is biochemical. The protocol: H3 GTPγS assay (SPA method) was performed at EuroScreen (Belgium, ES-392-C) using conventional methods. Briefly, cells expressing the human histamine H3 receptor were homogenized in 15 mM Tris-HCl pH 7.5, 2 mM MgCl2, 0.3 mM EDTA, and 1 mM EGTA. Membranes were washed twice in the above tris buffer, collected by centrifugation (40,000×g, 25 min), and re-suspended in 75 mM Tris-HCl pH 7.5, 12.5 mM MgCl2, 0.3 mM EDTA, 1 mM EGTA, and 250 mM sucrose. Membranes were frozen in liquid nitrogen until use. On the day of the assay, membranes were thawed and diluted in assay buffer (20 mM HEPES pH 7.4, 100 mM NaCl, 10 μg/ml saponin, 1 mM MgCl2) to give 500 μg/ml and mixed (v/v) with GDP in assay buffer for a final GDP concentration of 10 μM and incubated on ice for at least 15 min. PVT-WGA beads (Amersham, RPNQ001) were diluted in assay buffer at 50 mg/mL and mixed with GTPγ[^35S] (Amersham, SJ1308) diluted in assay buffer to give ˜25,000 dpm/10 μL, and mixed vol/vol just before the start of the reaction. The reaction was started by adding 50 μL of test compound, 20 μL of the membranes:GDP mix, 10 μL of buffer, and 20 μL of the GTPγ[^35S]:beads mix in a 96 well plate Optiplate™ (PerkinElmer, 6005299) covered with topseal (TopCount™, PerkinElmer), mixed with an orbital shaker for 2 min, incubated for 1 hour at room temperature, centrifuged for 10 min at 2000 rpm, incubated for 1 h at room temperature, and counted for 1 min in a TopCount™ reader (PerkinElmer). Dose response curves and IC50 values (concentration to inhibit the reaction by 50%) were calculated by nonlinear regression using XLfit software (IDBS).
For antagonists testing, 10 μL of a reference agonist (R-γ-Me-Histamine) instead of 10 μL buffer was added at a concentration corresponding to the EC80 (30 nM). Control ligands were R-γ-Me-Histamine (Tocris, 0569), Imetit (Sigma, I-135), Thioperamide (Tocris, 0644), and Clobenpropit (Tocris, 0754) diluted in assay buffer.
The compounds provided herein were tested in the histamine H3 in vitro assay. In one embodiment, the respective HCl salts of the compounds provided herein were prepared using standard chemical procedures and tested in the histamine H3 in vitro assay.

The mark [1] stands for this setting: GTPγ[35S] SPA, membranes of cells expressing human H3 receptor, in one embodiment HCl salts tested, read-out: Potency (functional potency as indicated by IC50).
[2] abbreviates: histamine H3 in vitro assay, read-out: IC50 values.

Like-named read-outs stand apart in the source and are kept apart here.

T1 sequence (Q9Y5N1 whole entry): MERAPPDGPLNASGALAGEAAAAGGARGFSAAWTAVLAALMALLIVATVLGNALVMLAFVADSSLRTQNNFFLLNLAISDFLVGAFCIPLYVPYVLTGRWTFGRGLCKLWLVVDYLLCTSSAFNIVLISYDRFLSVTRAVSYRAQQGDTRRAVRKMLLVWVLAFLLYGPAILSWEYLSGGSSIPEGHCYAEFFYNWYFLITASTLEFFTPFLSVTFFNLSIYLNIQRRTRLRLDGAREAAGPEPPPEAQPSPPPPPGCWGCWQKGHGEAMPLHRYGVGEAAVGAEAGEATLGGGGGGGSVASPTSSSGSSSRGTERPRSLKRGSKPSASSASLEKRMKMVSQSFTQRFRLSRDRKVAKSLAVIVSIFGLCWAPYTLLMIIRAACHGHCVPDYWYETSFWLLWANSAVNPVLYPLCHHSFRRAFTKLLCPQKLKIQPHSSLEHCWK

For orientation: IC50 means the midpoint of a concentration-inhibition curve. Take `Brc1ccc2c(c1)CC1(CCCN(C3CCC3)CC1)O2` (stereo not shown) [Compound 47, 5′-Bromo-1-cyclobutyl-3′H-spiro[azepane-4,2′-benzofuran]]: the IC50 under setting [1] was no more than 1000 nM.
In the case of “5-(Imidazo[1,2-a]pyridin-6-yl)-1′,2′,3′,5′,6′,7′,9′,9a′-octahydro-3H-spiro[benzofuran-2,8′-pyrrolo[1,2-a]azepine] and 5-(imidazo[1,2-a]pyridin-6-yl)-1′,2′,3′,5′,6′,8′,9′,9a′-octahydro-3H-spiro[benzofuran-2,7′-pyrrolo[1,2-a]azepine] [96/96a]”, the IC50 under setting [1] is no more than 10 nM.
Turning to “5-Bromo-1′,2′,3′,5′,6′,7′,9′,9a′-octahydro-3H-spiro[benzofuran-2,8′-pyrrolo[1,2-a]azepine] and 5-bromo-1′,2′,3′,5′,6′,8′,9′,9a′-octahydro-3H-spiro[benzofuran-2,7′-pyrrolo[1,2-a]azepine] [94/94a]”, the IC50 under setting [1] is no more than 1000 nM.
As to `CC(C)N1CCC2(CC1)Cc1cc(-c3ccc(C#N)cc3)ccc1O2` [Compound 22, 4-(1′-Isopropyl-3H-spiro[benzofuran-2,4′-piperidine]-5-yl)benzonitrile], under setting [1], the IC50 was no more than 10 nM.
For `c1cc2c(cc1CN1CCOCC1)OC1(CCN(C3CCC3)CC1)C2` [Compound 44, 1′-Cyclobutyl-6-(morpholinomethyl)-3H-spiro[benzofuran-2,4′-piperidine]], the IC50 under setting [1] was no more than 100 nM.
`N#Cc1ccc(-c2ccc3c(c2)CC2(CCN(C4CCOCC4)CC2)O3)cc1` [Compound 19, 4-(1′-(Tetrahydro-2H-pyran-4-yl)-3H-spiro[benzofuran-2,4′-piperidine]-5-yl)benzonitrile]: under setting [1], the IC50 was no more than 100 nM.
On to `Brc1ccc2c(c1)CC1(CCN(C3CCC3)CC1)O2` [Compound 23, 5-Bromo-1′-cyclobutyl-3H-spiro[benzofuran-2,4′-piperidine]], for which the IC50 under setting [1] was no more than 1000 nM.
Same read-out and setting: the value for `Cc1cn2cc(-c3ccc4c(c3)CC3(CCN(C5CCC5)CC3)O4)ccc2n1` [Compound 54, 1′-Cyclobutyl-5-(2-methylimidazo[1,2-a]pyridin-6-yl)-3H-spiro[benzofuran-2,4′-piperidine]] was no more than 10 nM.
On to `CN1CCC(N2CCC3(CC2)Cc2ccccc2O3)CC1` [Compound 2, 1′-(1-Methylpiperidin-4-yl)-3H-spiro[benzofuran-2,4′-piperidine]], for which, under setting [2], the IC50 is greater than 1000 nM.
In the case of `c1ccc2c(c1)CC1(CCN(C3CCC3)CC1)O2` [Compound 1, 1′-Cyclobutyl-3H-spiro[benzofuran-2,4′-piperidine]], the IC50 under setting [1] was no more than 100 nM.
Turning to `c1ccc2c(c1)CC1(CCN(Cc3c[nH]cn3)CC1)O2` [Compound 3, 1′-((1H-Imidazol-4-yl)methyl)-3H-spiro [benzofuran-2,4′-piperidine]], under setting [2], the IC50 is greater than 1000 nM.
Regarding `Cn1ncc2ccc(-c3ccc4c(c3)CC3(CCN(C5CCC5)CC3)O4)cc21` [Compound 65, 1′-Cyclobutyl-5-(1-methyl-1H-indazol-6-yl)-3H-spiro[benzofuran-2,4′-piperidine]], under setting [1], the IC50 was no more than 10 nM.
With `Brc1ccc2c(c1)CC1(CCN3CCCCC3C1)O2` (single isomer, unassigned) [Compound 72, 5-Bromo-1′,3′,4′,6′,7′,8′,9′,9a′-octahydro-3H-spiro[benzofuran-2,2′-quinolizine]], the IC50 under setting [1] was no more than 1000 nM.
With `CN(C)Cc1ccc2c(c1)CC1(CCN(C3CCC3)CC1)O2` [Compound 39, 1-(1′-Cyclobutyl-3H-spiro[benzofuran-2,4′-piperidine]-5-yl)-N,N-dimethylmethanamine], the IC50 under setting [1] was no more than 10 nM.
Take `N#Cc1ccc(-c2ccc3c(c2)CC2(CCCN4CCCCC4C2)O3)cc1` (stereo not shown) [Compound 86, 4-(2′,3′,4′,6′,7′,8′,10′,10a′-octahydro-1′H,3H-spiro[benzofuran-2,9′-pyrido[1,2-a]azepin]-5-yl)benzonitrile]: the IC50 under setting [1] was no more than 10 nM.
As for `c1ccc2c(c1)ncn2-c1ccc2c(c1)CC1(CCN(C3CCC3)CC1)O2` [Compound 32, 5-(1H-Benzo[d]imidazol-1-yl)-1′-cyclobutyl-3H-spiro[benzofuran-2,4′-piperidine]], the IC50 under setting [1] is no more than 10 nM.
